This series in a line: solvent given as SMILES.

With `CCCCCCCCN1C(=O)c2ccc3c4c(-c5ccc(-n6c7ccccc7c7ccccc76)cc5)cc5c6c(cc(-c7ccc(-n8c9ccccc9c9ccccc98)cc7)c(c7ccc(c2c37)C1=O)c64)C(=O)N(CCCCCCCC)C5=O`, the absorption maximum (in ClC(Cl)Cl) stood at 551 nm.

Turning to `Oc1ccc(/N=C/c2ccccc2Oc2ccccc2)cc1`, the absorption maximum (in C1CCCCC1) is given as 348 nm; the absorption maximum (in C1COCCO1) was 341 nm; the absorption maximum (in CC#N) stood at 350 nm; the absorption maximum (in CC(C)=O) is recorded as 342 nm; the absorption maximum (in CC(C)CO) is listed as 344 nm; the absorption maximum (in CC(C)O) was 344 nm. In addition, the absorption maximum was found to be 341 nm (in CCCCC); 346 nm (in CCCCCC); 346 nm (in CCCCO); 346 nm (in CCCCOC(C)=O); 345 nm (in CCCO); 340 nm (in CCOC(C)=O). The absorption maximum came out at 345 nm (in CCOCC); 345 nm (in CN(C)C=O); 342 nm (in CO); 348 nm (in CS(C)=O); 342 nm (in Cc1ccccc1); 382 nm (in Cc1ccccc1C). Moreover, the absorption maximum is, setting by setting: (in ClC(Cl)Cl) 343 nm; (in N#Cc1ccccc1) 341 nm; (in c1ccccc1) 345 nm.

Where the note is “in ClCCl”, `COc1cc(OC)cc(C2=[O+][B-](F)(F)OC(c3ccc4ccccc4c3)=C2)c1` showed an absorption maximum of 402 nm.

For `CC[n+]1c(C=C2C(=O)C(C=C3N(C)c4ccc(Cl)cc4C3(C)C)=C2[O-])sc2ccccc21`, the absorption maximum stood at 634 nm (in CO), 649 nm (in ClC(Cl)Cl) and 650 nm (in ClCCl).

Take `CC1(C)C2=C3C=C4C5=[N+](CCC4OC3CCN2c2ccc(CC(=O)NCCCCCCO)cc21)c1ccc(S(=O)(=O)[O-])cc1C5(C)C` (stereo not drawn): the absorption maximum (in O) came out at 558 nm.

Take `CCn1c2ccccc2c2c3nsnc3c3c4ccccc4n(CC)c3c21`: the absorption maximum by setting is: (in CN(C)C=O) 420 nm; (in Cc1ccccc1) 420 nm; (in ClCCl) 420 nm.

For `COc1ccc(C2=C(C)C3=C(c4c(-c5ccccn5)nc5ccccn45)c4c(C)cc(C)n4[B-](F)(F)[N+]3=C2C)cc1`, where the note is “in ClCCl”, the absorption maximum stood at 535 nm.

In the case of `O=[N+]([O-])c1ccc2nc3cc4ccccc4cc3c(-c3ccccc3)c2c1`, where the note is “in ClCCl”, the absorption maximum is 400 nm.

As to `CCCCCCOC(=O)/C=C/C1=CC2=C(c3c(C)cc(C)cc3C)c3cc(/C=C/C(=O)OCCCCCC)cn3[B-](F)(F)[N+]2=C1`, the absorption maximum (in ClCCl) stood at 579 nm.

Molecule `CN1/C(=C/C2=C([O-])C(=O)C2=C2C(=O)NC(=O)NC2=O)C(C)(C)c2ccccc21` had an absorption maximum (in CCO) of 457 nm.

`Oc1ccccc1` showed an absorption maximum (in C1CCCCC1) of 265.96 nm.

As to `Cc1ccccc1-c1c2ccc(=[N+]3CCOCC3)cc-2oc2cc(N3CCCCC3)ccc12`, the absorption maximum by setting is: (in CCO) 560 nm; (in ClCCl) 559 nm.

With `FC(F)(F)c1ccc(/C=C2\C=C(c3ccccc3)C=C2c2ccccc2)cc1`, the absorption maximum (in C1CCOC1) is on record as 450 nm.

As for `CC(C)(C)c1ccc2c3c(c4ccc(C(C)(C)C)cc4c2c1)=[N+]1C(=C(c2ccccc2)c2cc4c5ccc(C(C)(C)C)cc5c5cc(C(C)(C)C)ccc5c4n2[B-]1(F)F)C=3`, the absorption maximum was 693 nm (in C1CCCCC1); 689 nm (in C1CCOC1); 683 nm (in CC#N); 694 nm (in Cc1ccccc1); 691 nm (in ClCCl).

As to `O=c1oc2ccc3ccccc3c2nc1-c1ccc(Cl)cc1`, the absorption maximum (in c1ccccc1) is 404 nm.

`COc1ccc(-c2cnc3nn4ccccc4c3c2)cc1` gave an absorption maximum (in C1CCOC1) of 386 nm.

For the setting “in ClC(Cl)Cl”, `CCCCCCn1c2cc(/C=C(\C#N)c3ccccc3)ccc2c2ccc(/C=C(\C#N)c3ccccc3)cc21` came in with an absorption maximum of 423.73 nm.

For the molecule `CCn1c2ccc(/C=C/c3ccc4c(c3)c3cc(-c5nc6ccccc6s5)ccc3n4CC)cc2c2cc(-c3nc4ccccc4s3)ccc21`, the absorption maximum reads like this: (in C1CCOC1) 361 nm; (in CCOC(C)=O) 360 nm.

For the setting “in C1CCCCC1”, `CCOC(=O)CCOc1ccc(C(c2c(C)[nH]c3ccccc23)c2c(C)[nH]c3ccccc23)cc1` registered an absorption maximum of 290 nm.

The molecule `Cc1ccc(-c2nc(-c3ccc(O)cc3)[nH]c2-c2ccc(C)cc2)cc1` came in with an absorption maximum (in CO) of 295 nm.

As to `COC(=O)c1cc(=O)n(C)c2cc(-c3ccc(N(C)C)cc3)sc12`, the absorption maximum was found to be 428 nm (in CC#N) and 434 nm (in ClCCl).

As for `CCN(CC)c1ccc([N+]2=Cc3ccc4c5c(ccc4c3O[B-]2(c2ccccc2)c2ccccc2)C=[N+](c2ccc(N(CC)CC)cc2)[B-](c2ccccc2)(c2ccccc2)O5)cc1`, the absorption maximum (in Cc1ccccc1) was 558 nm and the absorption maximum (in ClCCl) was found to be 552 nm.

In the case of `CCCn1c(=O)c(/C=C/c2nc3ccc(C)cc3n(CCC)c2=O)nc2ccc(C)cc21`, the absorption maximum is, setting by setting: (in C1COCCO1) 434 nm; (in CC#N) 431 nm; (in ClCCl) 434 nm.

In the case of `Nc1nc2ccccc2[n+]([O-])n1`, the absorption maximum runs as follows: (in CC#N) 407 nm; (in O) 415 nm.

Take `CCOC(=O)c1ccccc1-c1c2ccc(=[N+](CC)CC)cc-2oc2c1oc1cc(N)ccc12`: the absorption maximum was 590 nm (in CCO), 587 nm (in ClCCl) and 588 nm (in O).

For `CC(C)(C)NC(=O)c1cccc2ccc3c4cc(F)ccc4c4ccc(F)cc4c3c12`, under “in ClCCl”, the absorption maximum is 334 nm.

Consider `CCCCCCCCCCCCN1C(=O)c2ccc3c4ccc5c6c(ccc(c7ccc(c2c37)C1=O)c64)C(=O)N(CCCCCCCCCCCC)C5=O`, for which, under “in CN(C)C=O”, the absorption maximum was determined as 523 nm.

Turning to `CC/[NH+]=c1\cc2oc3cc(NCCO)c4ccccc4c3nc-2cc1C`, the absorption maximum is, setting by setting: (in CCO) 590 nm; (in O) 590 nm.

Molecule `CCCc1ccc(C#Cc2cc(C#Cc3ccc(CCC)cc3)c3ccc4c(C#Cc5ccc(N(C)C)cc5)cc(C#Cc5ccc(CCC)cc5)c5ccc2c3c54)cc1` came in with an absorption maximum (in ClCCl) of 473 nm.

Turning to `c1ccc2[nH]ncc2c1`, the absorption maximum (in C1CCCCC1) is listed as 294 nm.

With `C=C(C)C(CN1C(=O)c2cccc3cccc(c23)C1=O)OO` (stereo not drawn), the absorption maximum (in CCO) is recorded as 332 nm.

In the case of `N#Cc1ccc(-c2nc(-c3ccccc3)c(-c3ccccc3)[nH]2)cc1`, under “in CO”, the absorption maximum was 339 nm.

Take `CCOC(=O)c1sc2nc3c(c(C#N)c2c1N)CCCC3`: under “in c1ccccc1”, the absorption maximum is recorded as 420 nm.

Molecule `Cc1cc(C)c(B(c2c(C)cc(C)cc2C)c2cc3ccc4ccccc4c3c3c2cc(N(C)C)c2ccccc23)c(C)c1` yielded an absorption maximum (in C1CCCCC1) of 438 nm; an absorption maximum (in C1CCOC1) of 439 nm; an absorption maximum (in CC#N) of 437 nm; an absorption maximum (in ClC(Cl)Cl) of 440 nm; an absorption maximum (in c1ccccc1) of 440 nm.

Take `C1=Cc2nc1c(-c1ccccc1)c1ccc([nH]1)c(-c1ccccc1)c1cc(c(-c3ccccc3)c3ccc([nH]3)c2-c2ccccc2)N=C1`: the absorption maximum (in ClCCl) stood at 726 nm.

Consider `COc1ccc(-c2nc(-c3ccc(C#N)cc3)[nH]c2-c2ccc(OC)cc2)cc1`, for which the absorption maximum (in CO) is 354 nm.

These data come from the Deep4Chem optical property database.
